Assay results as given in PMC9839475 (Journal of acquired immune deficiency syndromes (1999), 2023).
Like-named read-outs stand apart in the source and are kept apart here.

Tests used:
[1] = Cohort 1 intensive PK after a single 100 mg doravirine tablet; set-up: species or system adolescents with HIV-1; settings: in vivo, po
[2] = Cohort 2 week 1 intensive PK, DOR FDC once daily; type: in vivo, adolescents with HIV-1; settings: for time at which Cmax occurred: Cohort 2, week 1, oral DOR/3TC/TDF, intensive PK
[3] = Cohort 2 sparse PK weeks 4-24, DOR FDC once daily; type: in vivo, adolescents with HIV-1
[4] = Cohort 1 safety through week 2; type: in vivo, adolescents with HIV-1
[5] = adults taking 200mg daily; upper PK target of Cohort 1; cited from earlier work
HIV-1 = settings: cited from earlier work
CYP3A = settings: cited from earlier work
[6] = set-up: species or system adolescents with HIV-1; settings: in vivo
[7] = in vivo

Compound: Cn1c(Cn2ccc(C(F)(F)F)c(Oc3cc(Cl)cc(C#N)c3)c2=O)n[nH]c1=O [Doravirine]
- AUC(0-inf) ([1]; human): 34.8 µM·h
- Tmax, median (range) ([1]; human): 3.78 (1.00–7.75) h
- Vd/F ([1]; human): 115 L
- half-life ([1]; human): 11.8 h
- Tmax ([1]; human, Tmax, median (range)): ~4 h
- Cl/F, geometric mean (geometric CV%) [1]: 6.75 (43) L/h
- Cl/F, geometric mean (geometric CV%) ([2]; Cohort 2, week 1, 100 mg daily as DOR FDC, n=10): 10.3 (47) L/h
- C24,ss observed, geometric mean (geometric CV%) ([2]; Cohort 2, week 1, 100 mg daily as DOR FDC, n=10, 8/10 switched from efavirenz): 282 (74) nM
- Tmax ([2]; human, plasma, oral): ~2 h
- Cmax ([2]; human, plasma, po, 100 mg): 2130 nM
- Tmax ([2]; human, plasma, po, 100 mg): 1.95 h
- geometric mean steady state doravirine concentrations ([3]; Cohort 2, all participants, Week 4 through Week 24): > 560 nM
- DOR plasma concentration, geometric mean ([3]; Cohort 2, week 4, predose, N=45, DOR/3TC/TDF once daily): 747 nM
- DOR plasma concentration, geometric mean ([3]; Cohort 2, week 8, random time, N=44, DOR/3TC/TDF once daily): 1320 nM
- DOR plasma concentration, geometric mean ([3]; Cohort 2, week 12, random time, N=44, DOR/3TC/TDF once daily): 2020 nM
- DOR plasma concentration, geometric mean ([3]; Cohort 2, week 24, 0.5–2 hours post dose, N=43, DOR/3TC/TDF once daily): 1870 nM
- DOR plasma concentration, geometric mean ([3]; Cohort 2, week 24, predose, N=43, DOR/3TC/TDF once daily): 1090 nM
- participants who died due to adverse event ([4]; Cohort 1, N=9, 100mg single dose, through week 2): 0 (0) n (%)
- Grade 3 or 4 adverse events ([4]; human, in vivo, 2 weeks): no Grade 3 or 4 adverse events
- participants with at least one Grade 1 or Grade 2 adverse event ([4]; human, in vivo, 2 weeks): 44.4%
- tolerability ([4]; in vivo): well tolerated
- geometric AUC0–24hr at steady-state [5]: 64 µM·h
- lipid levels compared to darunavir/ritonavir (HIV-1): significantly improved lipid levels
- discontinuations due to adverse events (HIV-1; week 48, doravirine plus 2 NRTIs, adults naïve to antiretroviral therapy): < 1%
- virologic response versus darunavir/ritonavir (HIV-1; week 48, plus 2 NRTIs): not inferior

Compound: C[C@H](Cn1cnc2c(N)ncnc21)OCP(=O)(O)O [tenofovir]
- time at which Cmax occurred [2]: approximately 1 hour

Compound: Nc1ccn([C@@H]2CS[C@H](CO)O2)c(=O)n1 [lamivudine]
- time at which Cmax occurred [2]: ~2 h

Compound: O=C1Nc2ccc(Cl)cc2[C@@](C#CC2CC2)(C(F)(F)F)O1 [efavirenz]
- CYP3A induction (CYP3A): moderate CYP3A inducer

Compound: doravirine/lamivudine/tenofovir disoproxil fumarate [DOR FDC]
- Alanine Aminotransferase, mean change [95% CI] [6]: 1.2 [−7.3, 9.6] IU/L
- Alkaline Phosphatase, mean change [95% CI] [6]: −20.7 [−35.1, −6.3] IU/L
- Aspartate Aminotransferase, mean change [95% CI] [6]: 0.8 [−5.1, 6.7] IU/L
- Bilirubin, mean change [95% CI] [6]: −0.0 [−0.2, 0.1] mg/dL
- Creatinine, mean change [95% CI] [6]: 0.0 [0.0, 0.1] mg/dL
- HDL Cholesterol, mean change [95% CI] [6]: −11.3 [−15.9, −6.6] mg/dL
- LDL Cholesterol, mean change [95% CI] [6]: −12.5 [−20.7, −4.2] mg/dL
- eGFR from Creatinine Adjusted for BSA, mean change [95% CI] [6]: −6.5 [−15.2, 2.2] mL/min/1.73m^2
- grade 3 diarrhea and gastroenteritis [7]: one participant
- grade 3 increased ALT [7]: one participant
- participants meeting safety endpoint eGFR <60 ml/min/1.73m^2 [7]: No participant
- participants who experienced at least one adverse event [7]: 45 participants
- participants with Grade 1 dizziness assessed as related to the study drug [7]: 2.2%
- participants with concomitant grade 3 increased creatinine [7]: 2
- participants with grade 3 decreased eGFR [7]: Three participants
- participants with no adverse events [7]: 0 (0) n (%)
- participants with one or more Grade 3 or greater adverse events [7]: 9 (20.0) n (%)
- participants with one or more Grade 3 or greater drug-related adverse events [7]: 0 (0) n (%)
- participants with one or more adverse events [7]: 45 (100.0) n (%)
- participants with one or more drug-related adverse events [7]: 1 (2.2) n (%)
- participants with one or more grade 3 adverse events [7]: 20%
- participants with one or more serious adverse events [7]: 1 (2.2) n (%)
- participants with one or more serious drug-related adverse events [7]: 0 (0) n (%)
- tolerability [7]: well tolerated
